Source: PubChem BioAssay AID2060491 (Molecular Pharmacology Branch, DTP, NCI, 2025)

Tested on: 857933-349-R-J2-PDC complex spheroids, viability
Test: Anticancer human tumor 857933-349-R-J2-PDC patient-derived colon adenocarcinoma cell line growth inhibition [GQUAD]
Settings: for IC50: curve of first compound; for viability, T/C: stronger effect = lower value; active = viability on the fitted dose curve at most 10% of control; inactive = the rest
Method in brief: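 Viability of tumor cells grown as complex spheroids with endothelial and stromal cells, exposed to drug combinations. Top concentration at or near clinical Cmax (else 10 microM), diluted in half-log increments.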

[1] = second compound 0.0316 µM, first compound 0.0316 µM
[2] = second compound 0.0316 µM, first compound 0.1 µM
[3] = second compound 0.0316 µM, first compound 0.316 µM
[4] = second compound 0.0316 µM, first compound 1 µM
[5] = second compound 0.0316 µM, first compound 3.16 µM
[6] = second compound 0.0316 µM, first compound 10 µM
[7] = second compound 0.1 µM, first compound 0.0316 µM
[8] = second compound 0.1 µM, first compound 0.1 µM
[9] = second compound 0.1 µM, first compound 0.316 µM
[10] = second compound 0.1 µM, first compound 1 µM
[11] = second compound 0.1 µM, first compound 3.16 µM
[12] = second compound 0.1 µM, first compound 10 µM
[13] = second compound 0.316 µM, first compound 0.0316 µM
[14] = second compound 0.316 µM, first compound 0.1 µM
[15] = second compound 0.316 µM, first compound 0.316 µM
[16] = second compound 0.316 µM, first compound 1 µM
[17] = second compound 0.316 µM, first compound 3.16 µM
[18] = second compound 0.316 µM, first compound 10 µM
[19] = second compound 1 µM, first compound 0.0316 µM
[20] = second compound 1 µM, first compound 0.1 µM
[21] = second compound 1 µM, first compound 0.316 µM
[22] = second compound 1 µM, first compound 1 µM
[23] = second compound 1 µM, first compound 3.16 µM
[24] = second compound 1 µM, first compound 10 µM
[25] = second compound 3.16 µM, first compound 0.0316 µM
[26] = second compound 3.16 µM, first compound 0.1 µM
[27] = second compound 3.16 µM, first compound 0.316 µM
[28] = second compound 3.16 µM, first compound 1 µM
[29] = second compound 3.16 µM, first compound 3.16 µM
[30] = second compound 3.16 µM, first compound 10 µM
[31] = second compound 10 µM, first compound 0.0316 µM
[32] = second compound 10 µM, first compound 0.1 µM
[33] = second compound 10 µM, first compound 0.316 µM
[34] = second compound 10 µM, first compound 1 µM
[35] = second compound 10 µM, first compound 3.16 µM
[36] = second compound 10 µM, first compound 10 µM
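Also: spheroids exposed to compounds for one week before readout.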
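For viability, T/C in this document: percent viability relative to vehicle DMSO wells taken as 100%.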

COc1ncnc(C2CC2)c1-c1ncc2cnn(Cc3ccc(-c4nc(C(F)(F)F)cn4C(C)C)cc3)c2n1 + Cc1[nH]c2ccc(F)cc2c1-c1nc2c3cccnc3c3ncccc3c2[nH]1
> 10000 nM: IC50 (second compound 0.0316 µM) | IC50 (second compound 0.1 µM) | IC50 (second compound 0.316 µM) | IC50 (second compound 1 µM) | IC50 (second compound 3.16 µM) | IC50 (second compound 10 µM)
inactive: viability, T/C [1] 102% | viability, T/C [2] 104% | viability, T/C [3] 99% | viability, T/C [4] 104% | viability, T/C [5] 109% | viability, T/C [6] 103% | viability, T/C [7] 106% | viability, T/C [8] 106% | viability, T/C [9] 107% | viability, T/C [10] 106% | viability, T/C [11] 98% | viability, T/C [12] 102% | viability, T/C [13] 102% | viability, T/C [14] 100% | viability, T/C [15] 96.1% | viability, T/C [16] 100% | viability, T/C [17] 94.3% | viability, T/C [18] 95.6% | viability, T/C [19] 102% | viability, T/C [20] 91.4% | viability, T/C [21] 96.3% | viability, T/C [22] 87.9% | viability, T/C [23] 98.4% | viability, T/C [24] 90.7% | viability, T/C [25] 98% | viability, T/C [26] 83.1% | viability, T/C [27] 84.5% | viability, T/C [28] 83.2% | viability, T/C [29] 92.5% | viability, T/C [30] 83.4% | viability, T/C [31] 86.3% | viability, T/C [32] 87.7% | viability, T/C [33] 84.6% | viability, T/C [34] 91.3% | viability, T/C [35] 90.3% | viability, T/C [36] 88.2%

CC(C)n1c(=O)n(C)c2cnc3cc(F)c(-c4ccc(OCCCN5CCCCC5)nc4)cc3c21 + Cc1cnc(CNC(=O)c2c(=O)c3ccc(N4CCCN(C)CC4)nc3n3c2sc2ccccc23)cn1
inactive: viability, T/C [1] 76.9% | viability, T/C [2] 60.9% | viability, T/C [3] 73.1% | viability, T/C [4] 69.2% | viability, T/C [5] 73.3% | viability, T/C [6] 54.3% | viability, T/C [7] 43.9% | viability, T/C [8] 45.5% | viability, T/C [9] 52.8% | viability, T/C [10] 52% | viability, T/C [11] 57.7% | viability, T/C [12] 31.4% | viability, T/C [13] 32.7% | viability, T/C [14] 39.1% | viability, T/C [15] 33% | viability, T/C [16] 35.2% | viability, T/C [17] 39.1% | viability, T/C [18] 17.5%
3220 nM: IC50 (second compound 0.1 µM)
active: viability, T/C [19] 9.65% | viability, T/C [20] 10.9% | viability, T/C [21] 8.38% | viability, T/C [22] 8.38% | viability, T/C [23] 11% | viability, T/C [24] 6.11% | viability, T/C [25] 3.19% | viability, T/C [26] 3.85% | viability, T/C [27] 4.08% | viability, T/C [28] 3.05% | viability, T/C [29] 4.81% | viability, T/C [30] 1.31% | viability, T/C [31] 3.24% | viability, T/C [32] 2.19% | viability, T/C [33] 2.95% | viability, T/C [34] 1.88% | viability, T/C [35] 2.22% | viability, T/C [36] 0.46%
> 10000 nM: IC50 (second compound 0.0316 µM)
< 31.6 nM: IC50 (second compound 0.316 µM) | IC50 (second compound 1 µM) | IC50 (second compound 3.16 µM) | IC50 (second compound 10 µM)

CC1COCCN1c1cc(C2(O)CC3CCC(C2)O3)c2cnn(-c3ccn[nH]3)c2n1 (stereo not given) + Cc1cnc(CNC(=O)c2c(=O)c3ccc(N4CCCN(C)CC4)nc3n3c2sc2ccccc23)cn1
inactive: viability, T/C [1] 49.9% | viability, T/C [2] 38.6% | viability, T/C [3] 36.8% | viability, T/C [4] 32.6% | viability, T/C [5] 35.3% | viability, T/C [6] 32% | viability, T/C [7] 33% | viability, T/C [8] 30.3% | viability, T/C [9] 21.1% | viability, T/C [10] 28% | viability, T/C [11] 31.8% | viability, T/C [12] 34%
active: viability, T/C [13] 8.32% | viability, T/C [14] 5.49% | viability, T/C [15] 5.41% | viability, T/C [16] 4.77% | viability, T/C [17] 9.73% | viability, T/C [18] 13.8% | viability, T/C [19] 2.88% | viability, T/C [20] 2.12% | viability, T/C [21] 2.17% | viability, T/C [22] 2.14% | viability, T/C [23] 4.27% | viability, T/C [24] 1.54% | viability, T/C [25] 1.85% | viability, T/C [26] 1.84% | viability, T/C [27] 1.55% | viability, T/C [28] 1.35% | viability, T/C [29] 1.5% | viability, T/C [30] 0.57% | viability, T/C [31] 0.52% | viability, T/C [32] 0.38% | viability, T/C [33] 0.33% | viability, T/C [34] 0.38% | viability, T/C [35] 0.85% | viability, T/C [36] 0.32%
< 31.6 nM: IC50 (second compound 0.0316 µM) | IC50 (second compound 0.1 µM) | IC50 (second compound 0.316 µM) | IC50 (second compound 1 µM) | IC50 (second compound 3.16 µM) | IC50 (second compound 10 µM)

CC1COCCN1c1cc(C2(S(C)(=N)=O)CC2)nc(-c2ccnc3[nH]ccc23)n1 (stereo not given) + Cc1cnc(CNC(=O)c2c(=O)c3ccc(N4CCCN(C)CC4)nc3n3c2sc2ccccc23)cn1
active: viability, T/C [18] 10% | viability, T/C [19] 5.52% | viability, T/C [20] 6.04% | viability, T/C [21] 4.55% | viability, T/C [22] 3.48% | viability, T/C [23] 3.6% | viability, T/C [24] 4.17% | viability, T/C [25] 2.4% | viability, T/C [26] 2.9% | viability, T/C [27] 2.49% | viability, T/C [28] 1.88% | viability, T/C [29] 1.99% | viability, T/C [30] 2.82% | viability, T/C [31] 1.11% | viability, T/C [32] 1.51% | viability, T/C [33] 1.22% | viability, T/C [34] 1.75% | viability, T/C [35] 1.64% | viability, T/C [36] 2.19%
< 31.6 nM: IC50 (second compound 0.316 µM) | IC50 (second compound 1 µM) | IC50 (second compound 3.16 µM) | IC50 (second compound 10 µM)
800 nM: IC50 (second compound 0.0316 µM)
327 nM: IC50 (second compound 0.1 µM)
inactive: viability, T/C [1] 82% | viability, T/C [2] 75.7% | viability, T/C [3] 72.3% | viability, T/C [4] 43.8% | viability, T/C [5] 42.1% | viability, T/C [6] 31.9% | viability, T/C [7] 56.5% | viability, T/C [8] 68.6% | viability, T/C [9] 45.8% | viability, T/C [10] 39.1% | viability, T/C [11] 34.4% | viability, T/C [12] 26.7% | viability, T/C [13] 26.8% | viability, T/C [14] 31.2% | viability, T/C [15] 20.8% | viability, T/C [16] 13.4% | viability, T/C [17] 10.6%

COc1ccc([C@@H](O)c2cc(-c3ncnc4cc(N5CCOCC5)ccc34)c(F)cc2Cl)nn1 + Cc1cnc(CNC(=O)c2c(=O)c3ccc(N4CCCN(C)CC4)nc3n3c2sc2ccccc23)cn1
179 nM: IC50 (second compound 0.1 µM)
712 nM: IC50 (second compound 0.0316 µM)
< 31.6 nM: IC50 (second compound 0.316 µM) | IC50 (second compound 1 µM) | IC50 (second compound 3.16 µM) | IC50 (second compound 10 µM)
active: viability, T/C [16] 3.09% | viability, T/C [17] 2.64% | viability, T/C [18] 2.37% | viability, T/C [19] 4.74% | viability, T/C [20] 3.32% | viability, T/C [21] 3.45% | viability, T/C [22] 2.29% | viability, T/C [23] 1.33% | viability, T/C [24] 1.08% | viability, T/C [25] 2.27% | viability, T/C [26] 2.54% | viability, T/C [27] 2.01% | viability, T/C [28] 1.72% | viability, T/C [29] 1.23% | viability, T/C [30] 0.95% | viability, T/C [31] 1.48% | viability, T/C [32] 2.1% | viability, T/C [33] 0.71% | viability, T/C [34] 1.8% | viability, T/C [35] 0.73% | viability, T/C [36] 0.29%
inactive: viability, T/C [1] 95.5% | viability, T/C [2] 81.5% | viability, T/C [3] 58% | viability, T/C [4] 47.1% | viability, T/C [5] 43% | viability, T/C [6] 38% | viability, T/C [7] 59.5% | viability, T/C [8] 59.5% | viability, T/C [9] 40.9% | viability, T/C [10] 25.9% | viability, T/C [11] 23.2% | viability, T/C [12] 26.5% | viability, T/C [13] 26.5% | viability, T/C [14] 26.6% | viability, T/C [15] 14.2%
